Data taken from patent publication US11754486B2, “Systems and methods for measuring properties of particles” (Massachusetts Institute of Technology, priority 2017, dated 2023).

Tests used:
L1210 cells [1] = assay: SNACS / node deviation end-point assay of chemically perturbed L1210 cells in the suspended microchannel resonator (SMR); assay type: cell-based, mouse; settings: for SNACS (size-normalized acoustic scattering, proxy of cell stiffness) after treatment: L1210 cells pretreated 20-30 min, LatB 0.02-1 μM, CytoD 1 μM, Bleb 50 μM, Noc 1 μg/ml, vs DMSO 0.1% control, LatB and CytoD p<0.0001
Protocol: SMR devices were fabricated at CEA-LETI, Grenoble, France. The fluid channel in the detection regime is covered with thin silicon layers. The SMRs were vibrated with a piezo-ceramic plate bonded underneath the chip, providing actuation to resonate the cantilever beam in the second mode. To track the changes in the resonant frequency of the cantilever as a function of time, the cantilever was kept in a feedback loop oscillating at its resonant frequency. The motion of the cantilever was measured using piezoresistors that are implanted at the base of the silicon cantilever. A digital control platform was utilized to oscillate the SMR in direct feedback mode, where the motion signal acquired from the piezoresistor is delayed, amplified, and utilized as the drive signal used to actuate the cantilever. The measurement bandwidth of this control system was set at ˜1,500 Hz, which is wide enough to capture frequency modulation signals created by cell transit events and narrow enough to minimize noise.
(§1) The system was operated by placing a chip on top of a hollow copper plate that is connected to a water bath by tubing to maintain constant temperature on the chip. For all single-cell, long-term monitoring experiments, the temperature of the copper plate was kept at 37° C. The sample was loaded to the SMR from vials pressurized with air containing 5% CO2 to maintain the pH of the culture. A 0.007″ inner diameter fluorinated ethylene propylene (FEP) tubing (IDEX Health & Science) was utilized to push the sample into the chip. The fluid flow was controlled using two electronic pressure regulators (Proportion Air QPV1) and three solenoid valves (SMC-S070), which were controlled by National Instruments control cards and a custom measurement software (Labview 2012). Typically, differential pressure of ˜0.5 psi was applied across the SMR, yielding a flow rate of ˜2 nL/s (calculated based on the frequency modulation signal due a cell transit; typically 200-300 ms) to maintain constant shear and data rate. Under these conditions, the L1210 cell growth rate was similar to that in culture. Beads, hydrogels and drug-response end-point assays were measured at room temperature. All end-point assays were conducted within 30 minutes after samples were loaded. New samples were flushed every several minutes into the input bypass to minimize potential size bias due to particle/cell settling in the tubing and sample vials.
To measure buoyant mass (antinode) and node deviation (node) from the acquired resonant frequency waveforms, the frequency data was filtered with a third order Savitzky-Golay low-pass filter and the local minima (antinode) that is below a user-defined threshold. Next, local maxima (node) around the peaks were determined. To correct for the possible slope during the particle/cell transition through the cantilever, a baseline was calculated and subtracted from the measured peaks by fitting a first order polynomial at frequency data points prior and posterior of the cell signal. For single-cell volume measurements (FIG. 16A), baselines were fitted with a second order polynomial to account for the baseline fluctuation due to fluid exchange. Both local maxima and minima in the cell signal were subtracted from the linear baseline to obtain the buoyant mass (local minima, antinode) and node deviation (local maxima, node). For single-cell end-point assays (population measurements), frequency peaks were rejected when local minima (two antinodes) differed from each other more than 10% of the average value and/or local maxima (two nodes) differed from each other more than 15% of the average value of local minima, which occur when multiple cells or cell with debris enter the SMR simultaneously. Peaks were rejected if their shape was atypical (e.g., particle/cell stuck in the cantilever). […]

L1210 cells [2] = assay: Continuous single-cell monitoring of SNACS (stiffness) of L1210 cells through mitosis in the SMR; assay type: cell-based, mouse
Protocol: Next, it was determined if both stiffness and buoyant mass of the same cell could be repeatedly measured in order to monitor cell stiffness during the cell cycle. To do so, a previously reported fluidic control strategy was implemented that enables continuous, non-invasive SMR measurements of the same cell. Employing on-chip microscopy capable of acquiring Differential Interference Contrast (DIC) images, stiffness, buoyant mass and morphology of the same cell over multiple generations was simultaneously measured. […] SNACS is shown in dashed lines when measurement error becomes statistically significant. The morphology of the cell was imaged to pinpoint the onset of anaphase as well as to correct for mass elongation effects on the SNACS measurement during anaphase and telophase (FIG. 24A-24C). Dynamic but consistent changes in cell stiffness during mitosis were observed. […] The error in the SNACS measurement increased after cells became full doublets (˜15 min after the onset of anaphase), making subsequent stiffness changes until division not statistically significant (p>0.05). Although the duration and magnitude of the dynamics varied, we observed a similar trend in cell stiffness in other mammalian cell types: BaF3 (FIG. 15D) and S-Hela (FIG. 15E).
as §1
To measure buoyant mass (antinode) and node deviation (node) from the acquired resonant frequency waveforms, the frequency data was filtered with a third order Savitzky-Golay low-pass filter and the local minima (antinode) that is below a user-defined threshold. Next, local maxima (node) around the peaks were determined. To correct for the possible slope during the particle/cell transition through the cantilever, a baseline was calculated and subtracted from the measured peaks by fitting a first order polynomial at frequency data points prior and posterior of the cell signal. For single-cell volume measurements (FIG. 16A), baselines were fitted with a second order polynomial to account for the baseline fluctuation due to fluid exchange. […]

L1210 cells [3] = assay: Imaging of F-actin (LifeAct-RFP) in live L1210 cells before and after chemical treatment; assay type: cell-based, mouse; settings: live L1210 cells expressing LifeAct-RFP, before and after 30 min treatment; 1 μM LatB, 1 μM CytoD, Noc 1 μg/ml
Protocol: L1210 FUCCI cells, which express the fluorescence cell cycle marker construct mAG-hGem, were transfected with LifeAct, a F-actin labelling red fluorescent protein construct, using rLVUbi-LifeAct-TagRFP lentiviral vector obtained from ibidi GmbH. Several rounds of transfections were carried out using spinoculation. In short, 1.5×10^5 L1210 FUCCI cells were mixed with 10 μg/ml Polybrene (EMD Millipore) and 1×106 TU of lentivirus, and the mixture was centrifuged at 800 g for 60 minutes at 25° C. After centrifugation, the cells were moved to normal cell culture media, grown overnight, and the spinoculation procedure was repeated. Cells were moved to normal culture media after three rounds of transfections, and 24 hours later, selection was started by adding 10 μg/ml Puromycin (Sigma-Aldrich). After a week of selection, the transfected population was enriched for cells expressing high levels of LifeAct by FACS sorting using BD FACS Aria.
L1210 cells expressing the FUCCI (mAG-hGem) and LifeAct-RFP F-actin probe (rLVUbi-LifeAct-TagRFP) constructs were imaged on poly-lysine coated glass bottom CellView cell culture dishes (Greiner Bio-One). Media, CO2, and temperature conditions during the imaging were the same as within the SMR. Imaging was carried out using a DeltaVision widefield deconvolution microscope with standard FITC and TRICT filters, 100× oil immersion objective and immersion oil with refractive index of 1.522. […]
All images were deconvolved using standard settings in the softWoRX software. To normalize the effect of photo-bleaching, the total LifeAct signal in the entire images (2048×2048 pixels) that contained multiple cells was calculated. […] During the subsequent image analyses, the LifeAct intensity was corrected with the corresponding decay coefficient calculated from the polynomial fit for each frame. To analyze individual cells, the representative cells that went through the nuclear envelope breakdown and/or cytokinesis during the experiment were determined. These cells were cut out of the larger images and analyzed individually (FIG. 28A).

Baf3 cells = assay: Node deviation versus time of Baf3 cells treated with drug (single-cell therapeutic sensitivity); assay type: cell-based; settings: a few hours of treatment
Protocol: Acoustic scattering may be used as an early detection marker of single-cell therapeutic sensitivity (FIGS. 11A-11B). […] Viability and proliferation assays are generally not sensitive until 24 hours of drug exposure (data not shown).

Cc1ccc2c(c1)C(=O)C1(O)CCN(c3ccccc3)C1=N2 (stereo not drawn) [Blebbistatin]
SNACS (size-normalized acoustic scattering, proxy of cell stiffness) after treatment (L1210 cells [1]): decreased the SNACS
stiffness in early mitosis (L1210 cells [2]; 25 μM Blebbistatin): still displayed a gradual stiffness decrease in early mitosis
stiffness dynamics in anaphase and telophase (L1210 cells [2]; 25 μM Blebbistatin, compared with untreated cells): disappeared

C=C1[C@@H](C)[C@H]2[C@H](Cc3ccccc3)NC(=O)[C@]23[C@H](OC(C)=O)/C=C/[C@@](C)(O)C(=O)[C@@H](C)C/C=C/[C@H]3[C@@H]1O [Cytochalsin D]
SNACS (size-normalized acoustic scattering, proxy of cell stiffness) after treatment (L1210 cells [1]): decreased the SNACS
actin cortex morphology (LifeAct F-actin images) (L1210 cells [3]): polarized cortex

CCN(c1nc(N)c(C(=O)NC(=N)N)nc1Cl)C(C)C [EIPA, ethylisopropylamiloride]
stiffness increase in early anaphase (L1210 cells [2]; 10 μM EIPA): not present
ΔSNACS, SNACS change in prophase and metaphase (early mitosis) (L1210 cells [2]; 10 μM EIPA (n=5), 5 μM STLC (n=8), mean±standard deviation, control −0.22±0.01): −0.08±0.02

Cc1ccc(NC(=O)c2ccc(CN3CCN(C)CC3)cc2)cc1Nc1nccc(-c2cccnc2)n1 [Imatinib]
node deviation (ND) of treated cells versus DMSO (Baf3 cells): distinct ND

C/C1=C/C(=O)O[C@@H]2C[C@@H](CC[C@H](C)/C=C\CC1)O[C@@](O)([C@@H]1CSC(=O)N1)C2 [Latrunculin B]
SNACS (size-normalized acoustic scattering, proxy of cell stiffness) after treatment (L1210 cells [1]): decreased the SNACS
actin cortex morphology (LifeAct F-actin images) (L1210 cells [3]): punctured cortex

COC(=O)Nc1nc2ccc(C(=O)c3cccs3)cc2[nH]1 [Nocodazole]
SNACS (size-normalized acoustic scattering, proxy of cell stiffness) after treatment (L1210 cells [1]): reduced SNACS
actin cortex morphology (LifeAct F-actin images) (L1210 cells [3]): affected the actin cortex morphology

N[C@@H](CSC(c1ccccc1)(c1ccccc1)c1ccccc1)C(=O)O [STLC, S-trityl-1-cysteine]
stiffness (SNACS) during metaphase arrest (L1210 cells [2]; 5 μM STLC): stiffness remained low for several hours

paraformaldehyde
SNACS after crosslinking of cellular structures (L1210 cells [1]): opposite change in SNACS
node deviation after treatment (L1210 cells [1]): increased the node deviation
